Results from US10913710B2, “Benzene disulfonamide for the treatment of cancer” (priority 2017, dated 2021).

Test system: human peripheral blood mononuclear cells (hPMPBC)
Assay: Cytotoxicity assay with human peripheral blood mononuclear cells
Assay type: cell-based
Conditions: not given
Procedure: Cells were incubated with test substances at titrated concentrations ranging between 30 μM and 1.7 nM for 72 h. After the incubation period, the cells were fixed with 10% (wt/vol) trichloroacetic acid and stained for 30 min with sulforhodamine B (SRB) staining solution prior to removing unbound dye by washing repeatedly with 1% (vol/vol) acetic acid. The protein-bound dye is dissolved in 10 mM Tris base solution for OD (optical density) determination at 510 nm using a microplate reader.

| SMILES | concentration up to which hPMBCs proliferation is not impaired |
| --- | --- |
| CNc1nccc(CN(CC2CCNCC2)S(=O)(=O)c2ccc(S(=O)(=O)N(Cc3ccc(Cl)cc3)C3CCCC3)cc2)n1 [Compound 16, N1-(4-Chlorobenzyl)-N1-cyclopentyl-N4-((2-(methylamino)pyrimidin-4-yl)methyl)-N4-(piperidin-4-ylmethyl)benzene-1,4-disulfonamide] | ≥ 30 µM |

Biological target: PDEδ (Homo sapiens (Human), UniProt O43924)
Assay: Fluorescence polarization competition binding assay: displacement titration of labeled Atorvastatin probe for KD
Conditions: fluorescence polarization assay; activity classes; read-out: KD
Procedure: Example D.2: Displacement Titrations of Labeled Atorvastatin-Probe for the Determination of KD Values
Displacement Titrations of Labeled Atorvastatin-Probe for the Determination of KD Values:
The purification was followed by size exclusion gel filtration on a Superdex 75 S26/60 column using buffer A (25 mM Tris-HCl, pH 7.5, 150 mM NaCl and 3 mM DTE).

| SMILES | Kd |
| --- | --- |
| CNc1cc(CN(CC2CCNCC2)S(=O)(=O)c2ccc(S(=O)(=O)N(Cc3ccc(Cl)cc3)C3CCCC3)cc2)ccc1C(=O)O [Compound 21, 4-(((4-(N-(4-chlorobenzyl)-N-cyclopentylsulfamoyl)-N-(piperidin-4-ylmethyl)phenyl)sulfonamido)methyl)-2-(methylamino)benzoic Acid] | 1 to 30 nM |
| O=S(=O)(c1ccc(S(=O)(=O)N(Cc2ccc(Cl)cc2)C2CCCC2)cc1)N(Cc1ccccc1)CC1CCNCC1 [Compound 44, N1-Benzyl-N4-(4-chlorobenzyl)-N4-cyclopentyl-N1-(piperidin-4-ylmethyl)benzene-1,4-disulfonamide] | 1 to 30 nM |
| CN(Cc1ccccc1)S(=O)(=O)c1ccc(S(=O)(=O)N(Cc2ccc(Cl)cc2)Cc2ccco2)cc1 [Compound 74, N1-benzyl-N4-(4-chlorobenzyl)-N4-(furan-2-ylmethyl)-N1-methylbenzene-1,4-disulfonamide] | > 1000 nM |
| COc1ccc(CN(Cc2ccc3c(c2)OCO3)S(=O)(=O)c2ccc(S(=O)(=O)NC3CCCCC3)cc2)cc1OC [Compound 75, N1-(benzo[d][1,3]dioxol-5-ylmethyl)-N4-cyclohexyl-N1-(3,4-dimethoxybenzyl)benzene-1,4-disulfonamide] | > 1000 nM |
| CCOc1ccccc1CN(Cc1ccco1)S(=O)(=O)c1ccc(S(=O)(=O)NC2CCCCC2)cc1 [Compound 76, N1-cyclohexyl-N4-(2-ethoxybenzyl)-N4-(furan-2-ylmethyl)benzene-1,4-disulfonamide] | 100 to 1000 nM |
| O=S(=O)(NCC1CCCO1)c1ccc(S(=O)(=O)N(Cc2ccccc2)Cc2ccccc2F)cc1 (centres unmarked) [Compound 77, N1-benzyl-N1-(2-fluorobenzyl)-N4-((tetrahydrofuran-2-yl)methyl)benzene-1,4-disulfonamide] | 100 to 1000 nM |
| O=S(=O)(c1ccc(S(=O)(=O)N(Cc2ccc(F)cc2)Cc2ccc(F)cc2)cc1)N1CCCCC1 [Compound 78, N,N-bis(4-fluorobenzyl)-4-(piperidin-1-ylsulfonyl)benzenesulfonamide] | 100 to 1000 nM |
| CCOc1ccc(CN(CC2CCCO2)S(=O)(=O)c2ccc(S(=O)(=O)N3CCCCC3)cc2)cc1 (centres unmarked) [Compound 79, N-(4-ethoxybenzyl)-4-(piperidin-1-ylsulfonyl)-N-((tetrahydrofuran-2-yl)methyl)benzenesulfonamide] | > 1000 nM |
| O=S(=O)(c1ccc(S(=O)(=O)N(Cc2ccc(F)cc2)CC2CCCO2)cc1)N1CCCCC1 (centres unmarked) [Compound 80, N-(4-fluorobenzyl)-4-(piperidin-1-ylsulfonyl)-N-((tetrahydrofuran-2-yl)methyl)benzenesulfonamide] | 30 to 100 nM |
| COc1ccc(CN(Cc2ccccc2Cl)S(=O)(=O)c2ccc(S(=O)(=O)N3CCCCC3)cc2)cc1 [Compound 81, N-(2-chlorobenzyl)-N-(4-methoxybenzyl)-4-(piperidin-1-ylsulfonyl)benzenesulfonamide] | 30 to 100 nM |
| O=S(=O)(c1ccc(S(=O)(=O)N(Cc2ccc(Cl)cc2)CC2CCCO2)cc1)N1CCCCC1 (centres unmarked) [Compound 82, N-(4-chlorobenzyl)-4-(piperidin-1-ylsulfonyl)-N-((tetrahydrofuran-2-yl)methyl)benzenesulfonamide] | 100 to 1000 nM |
| CN(C1CCCCC1)S(=O)(=O)c1ccc(S(=O)(=O)N(Cc2ccc(F)cc2)C2CC2)cc1 [Compound 83, N1-cyclohexyl-N4-cyclopropyl-N4-(4-fluorobenzyl)-N1-methylbenzene-1,4-disulfonamide] | 30 to 100 nM |
| COc1cccc(CN(Cc2ccco2)S(=O)(=O)c2ccc(S(=O)(=O)NCC3CCCO3)cc2)c1 (centres unmarked) [Compound 84, N1-(furan-2-ylmethyl)-N1-(3-methoxybenzyl)-N4-((tetrahydrofuran-2-yl)methyl)benzene-1,4-disulfonamide] | 1 to 30 nM |
| CCOc1ccc(CN(Cc2ccc(OC)cc2)S(=O)(=O)c2ccc(S(=O)(=O)N3CCCCC3)cc2)cc1 [Compound 85, N-(4-ethoxybenzyl)-N-(4-methoxybenzyl)-4-(piperidin-1-ylsulfonyl)benzenesulfonamide] | 100 to 1000 nM |
| O=S(=O)(c1ccc(S(=O)(=O)N(Cc2ccccc2)Cc2ccc(F)cc2)cc1)N1CCCC1 [Compound 86, N-benzyl-N-(4-fluorobenzyl)-4-(pyrrolidin-1-ylsulfonyl)benzenesulfonamide] | > 1000 nM |
| CCN(CC)S(=O)(=O)c1ccc(S(=O)(=O)N(Cc2ccc(F)cc2)Cc2cccc(OC)c2OC)cc1 [Compound 87, N1-(2,3-dimethoxybenzyl)-N4,N4-diethyl-N1-(4-fluorobenzyl)benzene-1,4-disulfonamide] | > 1000 nM |
| O=S(=O)(NCC1CCCO1)c1ccc(S(=O)(=O)N(Cc2ccc(F)cc2)C2CCCCC2)cc1 (centres unmarked) [Compound 88, N1-cyclohexyl-N1-(4-fluorobenzyl)-N4-((tetrahydrofuran-2-yl)methyl)benzene-1,4-disulfonamide] | 100 to 1000 nM |
| CCOc1ccccc1CN(Cc1ccco1)S(=O)(=O)c1ccc(S(=O)(=O)N(CC)C2CCCCC2)cc1 [Compound 89, N1-cyclohexyl-N4-(2-ethoxybenzyl)-N1-ethyl-N4-(furan-2-ylmethyl)benzene-1,4-disulfonamide] | 1 to 30 nM |
| O=S(=O)(NCc1ccccc1)c1ccc(S(=O)(=O)N(Cc2ccc(Cl)cc2)Cc2ccco2)cc1 [Compound 90, N1-benzyl-N4-(4-chlorobenzyl)-N4-(furan-2-ylmethyl)benzene-1,4-disulfonamide] | 100 to 1000 nM |
| CN(Cc1ccccc1)S(=O)(=O)c1ccc(S(=O)(=O)N(Cc2ccc(F)cc2)C2CCCC2)cc1 [Compound 91, N1-benzyl-N4-cyclopentyl-N4-(4-fluorobenzyl)-N1-methylbenzene-1,4-disulfonamide] | 30 to 100 nM |
| O=S(=O)(NC1CCCC1)c1ccc(S(=O)(=O)N(Cc2ccccc2)Cc2ccccn2)cc1 [Compound 92, N1-benzyl-N4-cyclopentyl-N1-(pyridin-2-ylmethyl)benzene-1,4-disulfonamide] | 1 to 30 nM |
| O=S(=O)(NC1CCCC1)c1ccc(S(=O)(=O)N(Cc2ccc(F)cc2)Cc2ccc(F)cc2)cc1 [Compound 93, N1-cyclopentyl-N4,N4-bis(4-fluorobenzyl)benzene-1,4-disulfonamide] | 100 to 1000 nM |
| COc1ccc(CN(Cc2ccc3c(c2)OCO3)S(=O)(=O)c2ccc(S(=O)(=O)N3CCCC(C)C3)cc2)cc1OC (centres unmarked) [Compound 94, N-(benzo[d][1,3]dioxol-5-ylmethyl)-N-(3,4-dimethoxybenzyl)-4-((3-methylpiperidin-1-yl)sulfonyl)benzenesulfonamide] | > 1000 nM |
| COc1ccc(CN(Cc2ccc(OC)c(OC)c2)S(=O)(=O)c2ccc(S(=O)(=O)N3CCCCC3)cc2)cc1 [Compound 95, N-(3,4-dimethoxybenzyl)-N-(4-methoxybenzyl)-4-(piperidin-1-ylsulfonyl)benzenesulfonamide] | > 1000 nM |
| CN(Cc1ccccc1)S(=O)(=O)c1ccc(S(=O)(=O)N(Cc2ccccc2)Cc2ccccc2F)cc1 [Compound 96, N1,N4-dibenzyl-N1-(2-fluorobenzyl)-N4-methylbenzene-1,4-disulfonamide] | > 1000 nM |
| O=S(=O)(NC1CCCC1)c1ccc(S(=O)(=O)N(Cc2ccccc2)Cc2ccccc2Cl)cc1 [Compound 98, N1-benzyl-N1-(2-chlorobenzyl)-N4-cyclopentylbenzene-1,4-disulfonamide] | 1 to 30 nM |
| O=S(=O)(NCC1CCCO1)c1ccc(S(=O)(=O)N(Cc2ccc(Cl)cc2)Cc2ccco2)cc1 (centres unmarked) [Compound 99, N1-(4-chlorobenzyl)-N1-(furan-2-ylmethyl)-N4-((tetrahydrofuran-2-yl)methyl)benzene-1,4-disulfonamide] | 100 to 1000 nM |
| O=S(=O)(NCc1ccccc1)c1ccc(S(=O)(=O)N(Cc2ccc(Cl)cc2)C2CCCC2)cc1 [Compound 100, N1-benzyl-N4-(4-chlorobenzyl)-N4-cyclopentylbenzene-1,4-disulfonamide] | 30 to 100 nM |

Test system: Caco-2 cells
Assay: in vitro
Conditions: 10 μM, 2 hours, 37° C.
Procedure: (§1) Caco-2 Permeability Assay:
(§2) The compound concentration was measured in the receiver as well as the donor well.

| SMILES | Caco-2 pH 6.5/7.4 Papp A→B Arith. Mean | Caco-2 pH 6.5/7.4 Papp B→A Arith. Mean |
| --- | --- | --- |
| c1ccc(Cn2c(-c3ccc(OC[C@H](C4CCNCC4)n4c(-c5ccccc5)nc5ccccc54)cc3)nc3ccccc32)cc1 [Deltarasin, reference compound] | 1.0 10^−6 cm/s | 5.1 10^−6 cm/s |
| Cc1ccc(-n2nc3c(=O)n(CCCC(=O)NCC(C)c4ccccc4)nc(C)c3c2C)cc1 (centres unmarked) [Deltazinone 1, reference compound] | 41.1 10^−6 cm/s | 25.1 10^−6 cm/s |

Test system: not listed separately
Assay: in vitro
Conditions: human, Caco-2, pH 6.5
Procedure: as §1, §2

| SMILES | Papp A→B at 2 h, 10 µM | Papp B→A at 2 h, 10 µM | efflux ratio at 2 h, 10 μM |
| --- | --- | --- | --- |
| CNc1nccc(CN(CC2CCNCC2)S(=O)(=O)c2ccc(S(=O)(=O)N(Cc3ccc(Cl)cc3)C3CCCC3)cc2)n1 [Compound 16, N1-(4-Chlorobenzyl)-N1-cyclopentyl-N4-((2-(methylamino)pyrimidin-4-yl)methyl)-N4-(piperidin-4-ylmethyl)benzene-1,4-disulfonamide] | 1.6 ×10⁻⁶ cm/s | 13.7 ×10⁻⁶ cm/s | – |
| CNc1cc(CN(CC2CCNCC2)S(=O)(=O)c2ccc(S(=O)(=O)N(Cc3ccc(Cl)cc3)C3CCCC3)cc2)ccc1C(=O)O [Compound 21, 4-(((4-(N-(4-chlorobenzyl)-N-cyclopentylsulfamoyl)-N-(piperidin-4-ylmethyl)phenyl)sulfonamido)methyl)-2-(methylamino)benzoic Acid] | 0.4 ×10⁻⁶ cm/s | 0.5 ×10⁻⁶ cm/s | 1.1 |
| O=S(=O)(c1ccc(S(=O)(=O)N(Cc2ccc(Cl)cc2)C2CCCC2)cc1)N(Cc1ccccc1)CC1CCNCC1 [Compound 44, N1-Benzyl-N4-(4-chlorobenzyl)-N4-cyclopentyl-N1-(piperidin-4-ylmethyl)benzene-1,4-disulfonamide] | 0.6 ×10⁻⁶ cm/s | 0.6 ×10⁻⁶ cm/s | 0.9 |
